{"source": "patent US8895738B2", "about": "“Mesoionic pyrido [1, 2-A] pyrimidine pesticides” (E I du Pont de Nemours and Company, priority 2010, dated 2014)", "assay_type_in_all_cases": "in vivo", "key": {"[1]": {"system": "corn planthopper (Peregrinus maidis)", "experiment": "Test D: control of corn planthopper on maize plant, contact and/or systemic", "conditions": "144 h, assessed after 6 days, read-out: control efficacy: mortality", "method": "For evaluating control of corn planthopper (Peregrinus maidis) through contact and/or systemic means, the test unit consisted of a small open container with a 3-4-day-old maize plant (spike) inside. White sand was added to the top of the soil prior to application. Test compounds were formulated and sprayed at 250, 50, 10 and/or 2 ppm, and replicated three times as described for Test A. After spraying, the test units were allowed to dry for 1 h before they were post-infested with ˜15-20 nymphs (18 to 21 day old) by sprinkling them onto the sand with a salt shaker. A black, screened cap was placed on the top of each test unit, and the test units were held for 6 days in a growth chamber at 22-24° C. and 50-70% relative humidity. Each test unit was then visually assessed for insect mortality."}, "[2]": {"system": "rice green leafhopper (Nephotettix virescens)", "experiment": "Test G: control of rice green leafhopper on rice plant", "conditions": "120 h, assessed after 5 days, read-out: control efficacy: mortality", "method": "(§1) For evaluating control of rice green leafhopper (Nephotettix virescens) through contact and/or systemic means, the test unit consisted of a plastic pot containing a 13-cm-tall rice plant covered with steel wire mesh (50 mesh) supported by a wire frame. A small amount of sand was added to form a good seal between the bottom of the wire mesh, the soil surface and the top edge of the plastic pot.\n(§2) Test compounds were formulated and sprayed at 50, 10 and/or 2 ppm, and the tests were replicated three times in a manner similar to the one described for Test A. After spraying, the test units were allowed to dry for 2 h before they were post-infested with 10 green leafhoppers (3rd instar nymphs, 7-9 days post-hatch). After 5 days, each test unit was visually assessed for insect mortality."}, "[3]": {"system": "rice brown planthopper (Nilaparvata lugens)", "experiment": "Test H: control of rice brown planthopper on rice plant", "conditions": "120 h, assessed after 5 days, read-out: control efficacy: mortality", "method": "as §1, with “brown planthopper (Nilaparvata lugens)” for “green leafhopper (Nephotettix virescens)”\nas §2, with “at 10, 2” for “at 50, 10”, “and/or 0.4” for “and/or 2”, “10 brown planthoppers” for “10 green leafhoppers”"}, "[4]": {"system": "Rice plants (indica cultivar ‘MTU1010’)", "experiment": "Test J: vigor of rice crop outdoors, two foliar applications, West Godavri", "conditions": "applied twice, 48 days after first application, Nilaparvata lugens level high", "method": "(§3) To evaluate the effect of application of a compound of the invention on the vigor of rice crops grown under outdoor conditions, Tests 1 through 0 were conducted. “a.i.” refers to the amount of active ingredient applied.\nRice plants (indica cultivar ‘MTU1010’) were transplanted into flooded 5 m×3 m test plots of clay loam soil in the delta region of the West Godavri district, Andhra Pradesh, India, during the rainy season, and grown using local agronomic practices. After 52 days, aqueous mixtures of Compound 3 were applied to the foliage of the rice plants at 12.5, 25 or 50 g a.i./ha in a spray volume of 387 L/ha using a backpack sprayer. Plots of unsprayed rice plants were used as controls. Each treatment and control was replicated three times, and the plots were arranged in a randomized complete block design. At the time of application of Compound 3, the pest level of rice brown planthopper (Nilaparvata lugens) was high, i.e. much above the level considered economically significant. 20 days after the first treatment, the foliar applications of aqueous mixtures of Compound 3 were repeated at the same application rates in a spray volume of 467 L/ha."}, "[5]": {"system": "Rice plants (indica cultivar ‘Swarna’)", "experiment": "Test N: harvest yield of rice crop outdoors, two foliar applications, Bargarh", "conditions": "applied twice, Nilaparvata lugens level high, controls 620 kg/ha", "method": "as §3\nRice plants (indica cultivar ‘Swarna’) were transplanted into flooded 4 m×3 m test plots of clay loam soil in the Bargarh district, Orissa, India, during the rainy season, and grown using local agronomic practices. After 70 days, aqueous mixtures of Compound 3 were applied to the foliage of the rice plants at 12.5, 25 or 50 g a.i./ha in a spray volume of 400 L/ha using a backpack sprayer. Plots of unsprayed rice plants were used as controls. Each treatment and control was replicated three times, and the plots were arranged in a randomized complete block design. At the time of application of Compound 3, the pest level of rice brown planthopper (Nilaparvata lugens) was high, i.e. much above the level considered economically significant. 14 days after the first treatment, the foliar applications of aqueous mixtures of Compound 3 were repeated at the same application rates in a spray volume of 400 L/ha.\nHarvest yields from the crops treated with 12.5, 25 and 50 g a.i./ha of Compound 3 were 3190, 3660 and 4220 kg/ha, respectively, compared to 620 kg/ha from the untreated controls."}, "[6]": {"system": "Rice plants (indica cultivar ‘IR-64’)", "experiment": "Test O: harvest yield of rice crop outdoors, Bargarh", "conditions": "12.5, 25 and 50 g a.i./ha (method: 6.25, 12.5, 25 or 50), with indoxacarb and chlorantraniliprole, controls 1370 kg/ha", "method": "as §3\nRice plants (indica cultivar ‘IR-64’) were transplanted into flooded 5 m×5 m test plots of clay loam soil the Bargarh district, Orissa, India, at the end of the winter season, and grown using local agronomic practices. After 79 days, aqueous mixtures containing 30 g a.i./ha of indoxacarb in form of STEWARD® Insecticide, 20 g a.i./ha of chlorantraniliprole, and 6.25, 12.5, 25 or 50 g a.i./ha of Compound 3 were applied to the foliage of the rice plants at in a spray volume of 500 L/ha using a backpack sprayer. Plots of control rice plants were sprayed with an aqueous mixture containing 30 g a.i./ha of indoxacarb in form of STEWARD® Insecticide and 20 g a.i./ha of chlorantraniliprole (i.e. no Compound 3). Each treatment and control was replicated three times, and the plots were arranged in a randomized complete block design. At the time of application of Compound 3, the pest level of rice brown planthopper (Nilaparvata lugens) was high, i.e. much above the level considered economically significant.\nHarvest yields from the crops treated with 12.5, 25 and 50 g a.i./ha of Compound 3 were 2470, 3430, 3470 and 4600 kg/ha, respectively, compared to 1370 kg/ha from the untreated controls."}}, "note": "Counter-ions that a name gives are not always drawn."}
{"compound": "O=c1c(-c2cccc(C(F)(F)F)c2)c([O-])[n+](Cc2cncnc2)c2ccccn12", "note": "[Compound 3, 2-hydroxy-4-oxo-1-(5-pyrimidinylmethyl)-3-[3-(trifluoromethyl)phenyl]-4H-pyrido[1,2-a]pyrimidinium inner salt]", "values": [{"measurement": "mortality at 2 ppm", "setting": "[1]; sprayed at 2 ppm", "result": "≥ 80", "unit": "%"}, {"measurement": "mortality at 10 ppm", "setting": "[1]; sprayed at 10 ppm", "result": "≥ 80", "unit": "%"}, {"measurement": "mortality at 50 ppm", "setting": "[1]; sprayed at 50 ppm", "result": "≥ 80", "unit": "%"}, {"measurement": "mortality at 250 ppm", "setting": "[1]; sprayed at 250 ppm", "result": "≥ 80", "unit": "%"}, {"measurement": "mortality at 2 ppm", "setting": "[2]; sprayed at 2 ppm", "result": "≥ 80", "unit": "%"}, {"measurement": "mortality at 10 ppm", "setting": "[2]; sprayed at 10 ppm", "result": "≥ 80", "unit": "%"}, {"measurement": "mortality at 50 ppm", "setting": "[2]; sprayed at 50 ppm", "result": "≥ 80", "unit": "%"}, {"measurement": "mortality at 2 ppm", "setting": "[3]; sprayed at 2 ppm", "result": "≥ 80", "unit": "%"}, {"measurement": "mortality at 10 ppm", "setting": "[3]; sprayed at 10 ppm", "result": "≥ 80", "unit": "%"}, {"measurement": "crop vigor (visual rating, 0 to 200% scale, untreated = 100%)", "setting": "[4]; 12.5 g a.i./ha foliar", "result": 148, "unit": "%"}, {"measurement": "crop vigor (visual rating, 0 to 200% scale, untreated = 100%)", "setting": "[4]; 25 g a.i./ha foliar", "result": 148, "unit": "%"}, {"measurement": "crop vigor (visual rating, 0 to 200% scale, untreated = 100%)", "setting": "[4]; 50 g a.i./ha foliar", "result": 148, "unit": "%"}, {"measurement": "harvest yield", "setting": "[5]; 12.5 g a.i./ha foliar", "result": 3190, "unit": "kg/ha"}, {"measurement": "harvest yield", "setting": "[5]; 25 g a.i./ha foliar", "result": 3660, "unit": "kg/ha"}, {"measurement": "harvest yield", "setting": "[5]; 50 g a.i./ha foliar", "result": 4220, "unit": "kg/ha"}, {"measurement": "harvest yield", "setting": "[6]; 1st of four values", "result": 2470, "unit": "kg/ha"}, {"measurement": "harvest yield", "setting": "[6]; 2nd of four values", "result": 3430, "unit": "kg/ha"}, {"measurement": "harvest yield", "setting": "[6]; 3rd of four values", "result": 3470, "unit": "kg/ha"}, {"measurement": "harvest yield", "setting": "[6]; 4th of four values", "result": 4600, "unit": "kg/ha"}]}
